Values of other authors in patent EP4640072A1, “FLEECE MATERIALS TREATED WITH AN ION-PAIRING AGENT AND ORAL PRODUCTS COMPRISING FLEECE MATERIALS TREATED WITH AN ION-PAIRING AGENT” (Nicoventures Trading Limited, priority 2024, dated 2025).

Experiments:
[1] = lipophilicity of the organic acid; values obtained from PubChem or calculated
[2] = not given; remark: listed apart in the source
human buccal tissue = conditions: nicotine solution at pH = 6 relative to nicotine solution at pH 8.1; perfusion cell

Molecule | log(P)* [1] | further results
ethyl benzoic acid | 2.9 | –
CCCCCCCCCCCC(=O)O [dodecanoic acid] | 4.6 | –
CCCCCCCS(=O)(=O)O [1-heptanesulfonic acid] | 2.0 | –
CC(/C=C/C=C(C)/C=C/C(=O)O)=C\C=C\C=C(C)\C=C\C=C(C)\C=C\C(=O)O (stereo in doubt) [norbixin, (2E,4E,6E,8E,10E,12E,14E,16E,18E)-4,8,13,17-tetramethylicosa-2,4,6,8,10,12,14,16,18-nonaenedioic acid] | – | solubility: water soluble
CC(C)[C@@H]1CC[C@@H](C)C[C@H]1OC(=O)CCC(=O)O [monomenthyl succinate] | 3 | –
O=C(/C=C/c1ccc(O)c(O)c1)O[C@@H](C(=O)O)[C@@H](O)C(=O)O [Caftaric acid] | 1.2 | –
isopropyl benzoic acid | 3.5 | –
CN1CCCC1c1cccnc1 (stereo not shown) [nicotine] | – | log Kα1 ([2]; pyridine ring nitrogen): 3.41; log Ka2 ([2]; pyrrolidine ring nitrogen): 8.02; factor by which the rate of diffusion across human buccal tissue was reduced (human buccal tissue): ~ 7
COC(=O)/C=C/C(C)=C\C=C\C(C)=C\C=C\C=C(C)\C=C\C=C(C)\C=C\C(=O)O [bixin, (2E,4E,6E,8E,10E,12E,14E,16Z,18E)-20-methoxy-4,8,13,17-tetramethyl-20-oxoicosa-2,4,6,8,10,12,14,16,18-nonaenoic acid] | – | solubility: soluble in fats and alcohols but insoluble in water; chemical stability (when isolated, converts via isomerization into trans-bixin (β-bixin)): chemically unstable when isolated
CCCCCCCC(=O)O [octanoic acid] | 3.05 | –
